{"source": "PubChem BioAssay (NCI)", "test_in_all_cases": "NCI tumour cell line growth inhibition, 384-well format", "key": {"NCI/ADR-RES ovarian": {"system": "NCI/ADR-RES ovarian"}, "OVCAR-4 ovarian": {"system": "OVCAR-4 ovarian"}, "NCI-H226 lung": {"system": "NCI-H226 lung"}, "KM12 colon": {"system": "KM12 colon"}, "786-0 renal": {"system": "786-0 renal"}, "LOX IMVI melanoma": {"system": "LOX IMVI melanoma"}, "CAKI-1 renal": {"system": "CAKI-1 renal"}, "NCI-H322M lung": {"system": "NCI-H322M lung"}, "M14 melanoma": {"system": "M14 melanoma"}, "HOP-92 NSCLC": {"system": "HOP-92 NSCLC"}, "OVCAR-5 ovarian": {"system": "OVCAR-5 ovarian"}, "MALME-3M melanoma": {"system": "MALME-3M melanoma"}, "TK-10 renal": {"system": "TK-10 renal"}, "SN12C renal": {"system": "SN12C renal"}, "SF-539 CNS": {"system": "SF-539 CNS"}, "A549 NSCLC": {"system": "A549 NSCLC"}, "A498 renal": {"system": "A498 renal"}, "UACC-257 melanoma": {"system": "UACC-257 melanoma"}, "HCT-15 colon": {"system": "HCT-15 colon"}, "HCC-2998 colon": {"system": "HCC-2998 colon"}, "DU-145 prostate": {"system": "DU-145 prostate"}, "IGROV1 ovarian": {"system": "IGROV1 ovarian"}, "EKVX NSCLC": {"system": "EKVX NSCLC"}, "SF-268 CNS": {"system": "SF-268 CNS"}, "T-47D breast": {"system": "T-47D breast"}, "ACHN renal": {"system": "ACHN renal"}, "MCF7 breast": {"system": "MCF7 breast"}, "SK-OV-3 ovarian": {"system": "SK-OV-3 ovarian"}, "UO-31 renal": {"system": "UO-31 renal"}, "SNB-19 CNS": {"system": "SNB-19 CNS"}}, "note": "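Here, GI50 denotes the concentration required for 50% inhibition of growth. Definition used: TGI = concentration required for complete inhibition of growth.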", "data": [{"smiles": "C/C(=C\\c1csc(C)n1)[C@@H]1C[C@@H]2O[C@]2(C)CCC[C@H](C)[C@H](O)[C@@H](C)C(=O)C(C)(C)[C@@H](O)CC(=O)N1", "values": [{"measurement": "GI50", "setting": "NCI/ADR-RES ovarian", "value": 437, "unit": "nM"}, {"measurement": "TGI", "setting": "NCI/ADR-RES ovarian", "value": 1910, "unit": "nM"}, {"measurement": "TGI", "setting": "OVCAR-4 ovarian", "value": "> 100000", "unit": "nM"}, {"measurement": "TGI", "setting": "NCI-H226 lung", "value": "> 100000", "unit": "nM"}, {"measurement": "TGI", "setting": "KM12 colon", "value": "> 100000", "unit": "nM"}, {"measurement": "TGI", "setting": "786-0 renal", "value": 87.1, "unit": "nM"}, {"measurement": "TGI", "setting": "LOX IMVI melanoma", "value": "> 100000", "unit": "nM"}, {"measurement": "TGI", "setting": "CAKI-1 renal", "value": "> 100000", "unit": "nM"}, {"measurement": "GI50", "setting": "NCI-H322M lung", "value": 10.7, "unit": "nM"}, {"measurement": "TGI", "setting": "NCI-H322M lung", "value": "> 100000", "unit": "nM"}, {"measurement": "TGI", "setting": "M14 melanoma", "value": 10.3, "unit": "nM"}, {"measurement": "TGI", "setting": "HOP-92 NSCLC", "value": "> 100000", "unit": "nM"}, {"measurement": "TGI", "setting": "OVCAR-5 ovarian", "value": "> 100000", "unit": "nM"}, {"measurement": "TGI", "setting": "MALME-3M melanoma", "value": "> 100000", "unit": "nM"}, {"measurement": "GI50", "setting": "TK-10 renal", "value": 55.2, "unit": "nM"}, {"measurement": "TGI", "setting": "TK-10 renal", "value": "> 100000", "unit": "nM"}, {"measurement": "TGI", "setting": "SN12C renal", "value": "> 100000", "unit": "nM"}, {"measurement": "TGI", "setting": "SF-539 CNS", "value": 13.5, "unit": "nM"}, {"measurement": "TGI", "setting": "A549 NSCLC", "value": "> 100000", "unit": "nM"}, {"measurement": "TGI", "setting": "A498 renal", "value": "> 100000", "unit": "nM"}, {"measurement": "TGI", "setting": "UACC-257 melanoma", "value": "> 100000", "unit": "nM"}, {"measurement": "GI50", "setting": "HCT-15 colon", "value": 14.1, "unit": "nM"}, {"measurement": "TGI", "setting": "HCT-15 colon", "value": 384, "unit": "nM"}, {"measurement": "TGI", "setting": "HCC-2998 colon", "value": 12.3, "unit": "nM"}, {"measurement": "TGI", "setting": "DU-145 prostate", "value": 10.7, "unit": "nM"}, {"measurement": "GI50", "setting": "IGROV1 ovarian", "value": 27.6, "unit": "nM"}, {"measurement": "TGI", "setting": "IGROV1 ovarian", "value": "> 100000", "unit": "nM"}, {"measurement": "GI50", "setting": "EKVX NSCLC", "value": 24, "unit": "nM"}, {"measurement": "TGI", "setting": "EKVX NSCLC", "value": "> 100000", "unit": "nM"}, {"measurement": "TGI", "setting": "SF-268 CNS", "value": "> 100000", "unit": "nM"}, {"measurement": "TGI", "setting": "T-47D breast", "value": "> 100000", "unit": "nM"}, {"measurement": "GI50", "setting": "ACHN renal", "value": 40.3, "unit": "nM"}, {"measurement": "TGI", "setting": "ACHN renal", "value": "> 100000", "unit": "nM"}, {"measurement": "TGI", "setting": "MCF7 breast", "value": "> 100000", "unit": "nM"}, {"measurement": "TGI", "setting": "SK-OV-3 ovarian", "value": "> 100000", "unit": "nM"}, {"measurement": "GI50", "setting": "UO-31 renal", "value": 60.5, "unit": "nM"}, {"measurement": "TGI", "setting": "UO-31 renal", "value": "> 100000", "unit": "nM"}, {"measurement": "GI50", "setting": "SNB-19 CNS", "value": 15.7, "unit": "nM"}, {"measurement": "TGI", "setting": "SNB-19 CNS", "value": "> 100000", "unit": "nM"}]}]}
